Data published in patent US20250114374A1, “BCL-2 INHIBITORS” (Newave Pharmaceutical Inc., priority 2021, published 2025).
Like-named read-outs stand apart in the source and are kept apart here.

Test system: RS4; 11 with G101V mutation
Assay: In vitro anti-proliferation assay (ATPlite luminescence) in BCL-2-dependent ALL cell line RS4;11 with G101V mutation
Type: cell-based
Details: read-out: RS411-G101V IC50
In short: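 RS4;11 G101V cells at about 1×10^4 per well were exposed to a range of compound concentrations for about 72 h in medium with 10% FBS. Cellular ATP was measured by ATPlite luminescence after lysis, and IC50 was derived from the dose-response.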

[1] = cellular anti-proliferative IC50, about 72 hours, medium with 10% FBS, ATPlite

SMILES | IC50 [1] [µM] | IC50 (Homo sapiens, RS4-11, 72 h) [µM]
CC(C)Oc1ccccc1[C@H]1CN(C2CCC(N3CCOC[C@H]3C)CC2)CCN1C1CC2(CCN(c3ccc(C(=O)NS(=O)(=O)c4ccc(NCC5CCC(C)(O)CC5)c([N+](=O)[O-])c4)c(N4c5cc6cc[nH]c6nc5O[C@H]5COCC[C@@H]54)c3)CC2)C1 (stereo partly drawn) [Example 161, N-((4-((((1r,4r)-4-hydroxy-4-methylcyclohexyl)methyl)amino)-3-nitrophenyl)sulfonyl)-4-(2-((S)-2-(2-isopropoxyphenyl)-4-((1R,4S)-4-((R)-3-methylmorpholino)cyclohexyl)piperazin-1-yl)-7-azaspiro[3.5]nonan-7-yl)-2-((5aS,9aR)-6,7,9,9a-tetrahydro-1H-pyrano[3,4-b]pyrrolo[3′,2′:5,6]pyrido[3,2-e][1,4]oxazin-5(5aH)-yl)benzamide] | 0.0181 | 
COc1cc(CN2CCN(C3CC4(CCN(c5ccc(C(=O)NS(=O)(=O)c6ccc(NCC7CCC(C)(O)CC7)c([N+](=O)[O-])c6)c(N6c7cc8cc[nH]c8nc7O[C@H]7COCC[C@@H]76)c5)CC4)C3)[C@@H](c3ccccc3OC(C)C)C2)cnc1N1CCOC[C@@H]1C (stereo partly drawn) [Example 126, N-((4-((((1r,4r)-4-hydroxy-4-methylcyclohexyl)methyl)amino)-3-nitrophenyl)sulfonyl)-4-(2-((S)-2-(2-isopropoxyphenyl)-4-((5-methoxy-6-((S)-3-methylmorpholino)pyridin-3-yl)methyl)piperazin-1-yl)-7-azaspiro[3.5]nonan-7-yl)-2-((5aS,9aR)-6,7,9,9a-tetrahydro-1H-pyrano[3,4-b]pyrrolo[3′,2′:5,6]pyrido[3,2-e][1,4]oxazin-5(5aH)-yl)benzamide] | 0.0117 | 
COc1nc(CN2CCN(C3CC4(CCN(c5ccc(C(=O)NS(=O)(=O)c6ccc(NCC7CCC(C)(O)CC7)c([N+](=O)[O-])c6)c(N6c7cc8cc[nH]c8nc7O[C@H]7COCC[C@@H]76)c5)CC4)C3)[C@@H](c3ccccc3OC(C)C)C2)ccc1C (stereo partly drawn) [Example 106, 2-[(3R,8S)-2,5-dioxa-9,15,17-triazatetracyclo[8.7.0.0^{3,8}.0^{12,16}]heptadeca-1(10),11,13,16-tetraen-9-yl]-4-{2-[(2S)-2-(2-isopropoxyphenyl)-4-[(6-methoxy-5-methylpyridin-2-yl)methyl]piperazin-1-yl]-7-azaspiro[3.5]nonan-7-yl}-N-[3-nitro-4-({[(1r,4r)-4-hydroxy-4-methylcyclohexyl]methyl}amino)benzenesulfonyl]benzamide] | 0.0329 | 
COc1cc(CN2CCN(C3CC4(CCN(c5ccc(C(=O)NS(=O)(=O)c6ccc(NCC7CCOCC7)c([N+](=O)[O-])c6)c(N6c7cc8cc[nH]c8nc7O[C@H]7COCC[C@@H]76)c5)CC4)C3)[C@@H](c3ccccc3OC(C)C)C2)cnc1N1CCOCC1 [Example 144, 4-(2-((S)-2-(2-isopropoxyphenyl)-4-((5-methoxy-6-morpholinopyridin-3-yl)methyl)piperazin-1-yl)-7-azaspiro[3.5]nonan-7-yl)-N-((3-nitro-4-(((tetrahydro-2H-pyran-4-yl)methyl)amino)phenyl)sulfonyl)-2-((5aS,9aR)-6,7,9,9a-tetrahydro-1H-pyrano[3,4-b]pyrrolo[3′,2′:5,6]pyrido[3,2-e][1,4]oxazin-5(5aH)-yl)benzamide] |  | 0.0073
COc1cc(CN2CCN(C3CC4(CCN(c5ccc(C(=O)NS(=O)(=O)c6ccc(NCC7CCC(C)(O)CC7)c([N+](=O)[O-])c6)c(N6c7cc8cc[nH]c8nc7O[C@H]7COCC[C@@H]76)c5)CC4)C3)[C@@H](c3ccccc3OC(C)C)C2)cnc1N1CCOCC1 (stereo partly drawn) [Example 101, N-((4-((((1r,4r)-4-hydroxy-4-methylcyclohexyl)methyl)amino)-3-nitrophenyl)sulfonyl)-4-(2-((S)-2-(2-isopropoxyphenyl)-4-((5-methoxy-6-morpholinopyridin-3-yl)methyl)piperazin-1-yl)-7-azaspiro[3.5]nonan-7-yl)-2-((5aS,9aR)-6,7,9,9a-tetrahydro-1H-pyrano[3,4-b]pyrrolo[3′,2′:5,6]pyrido[3,2-e][1,4]oxazin-5(5aH)-yl)benzamide] | 0.0129 | 
COc1cc(CN2CCN([C@H]3CC4(CCN(c5ccc(C(=O)NS(=O)(=O)c6ccc(NCC7CCC(C)(O)CC7)c([N+](=O)[O-])c6)c(N6c7cc8cc[nH]c8nc7O[C@H]7COCC[C@@H]76)c5)CC4)[C@@H]3C)[C@H](c3ccccc3C)C2)cnc1N1CCOCC1 (stereo partly drawn) [Example 141, 2-[(3R,8S)-2,5-dioxa-9,15,17-triazatetracyclo[8.7.0.0^{3,8}.0^{12,16}]heptadeca-1(10),11,13,16-tetraen-9-yl]-4-[(1S,2S)-2-[(2R)-4-{[5-methoxy-6-(morpholin-4-yl)pyridin-3-yl]methyl}-2-(2-methylphenyl)piperazin-1-yl]-1-methyl-7-azaspiro[3.5]nonan-7-yl]-N-[3-nitro-4-({[(1r,4r)-4-hydroxy-4-methylcyclohexyl]methyl}amino)benzenesulfonyl]benzamide] | 0.0359 | 
COc1cc(CN2CCN(C3CC4(CCN(c5ccc(C(=O)NS(=O)(=O)c6ccc(NCC7CCOCC7)c([N+](=O)[O-])c6)c(N6c7cc8cc[nH]c8nc7O[C@H]7COCC[C@@H]76)c5)CC4)C3)[C@@H](c3ccccc3OC(C)C)C2)cnc1N1CCOCC1 [Example 131, 2-[(3R,8S)-2,5-dioxa-9,15,17-triazatetracyclo[8.7.0.0^{3,8}.0^{12,16}]heptadeca-1(10),11,13,16-tetraen-9-yl]-4-{2-[(2S)-2-(2-isopropoxyphenyl)-4-{[5-methoxy-6-(morpholin-4-yl)pyridin-3-yl]methyl}piperazin-1-yl]-7-azaspiro[3.5]nonan-7-yl}-N-{3-nitro-4-[(oxan-4-ylmethyl)amino]benzenesulfonyl}benzamide] | 0.0346 | 
COc1cc(CN2CCN(C3CC4(CCN(c5ccc(C(=O)NS(=O)(=O)c6cc7c(c([N+](=O)[O-])c6)N[C@@H](C6CCC(C)(O)CC6)CO7)c(N6c7cc8cc[nH]c8nc7O[C@H]7COCC[C@@H]76)c5)CC4)C3)[C@@H](c3ccccc3OC(C)C)C2)cnc1N1CCOCC1 (stereo partly drawn) [Example 130, 2-[(3R,8S)-2,5-dioxa-9,15,17-triazatetracyclo[8.7.0.0^{3,8}.0^{12,16}]heptadeca-1(10),11,13,16-tetraen-9-yl]-4-{2-[(2S)-2-(2-isopropoxyphenyl)-4-{[5-methoxy-6-(morpholin-4-yl)pyridin-3-yl]methyl}piperazin-1-yl]-7-azaspiro[3.5]nonan-7-yl}-N-[(3S)-5-nitro-3-[(1r,4S)-4-hydroxy-4-methylcyclohexyl]-3,4-dihydro-2H-1,4-benzoxazin-7-ylsulfonyl]benzamide] | 0.0131 | 
COc1cc(CN2CCN([C@@H]3CC4(CCN(c5ccc(C(=O)NS(=O)(=O)c6ccc(NCC7CCC(C)(O)CC7)c([N+](=O)[O-])c6)c(N6c7cc8cc[nH]c8nc7O[C@H]7COCC[C@@H]76)c5)CC4)[C@@H]3C)[C@H](c3ccccc3C)C2)cnc1N1CCOCC1 (stereo partly drawn) [Example 140, 2-[(3R,8S)-2,5-dioxa-9,15,17-triazatetracyclo[8.7.0.0^{3,8}.0^{12,16}]heptadeca-1(10),11,13,16-tetraen-9-yl]-4-[(1S,2R)-2-[(2R)-4-{[5-methoxy-6-(morpholin-4-yl)pyridin-3-yl]methyl}-2-(2-methylphenyl)piperazin-1-yl]-1-methyl-7-azaspiro[3.5]nonan-7-yl]-N-[3-nitro-4-({[(1r,4r)-4-hydroxy-4-methylcyclohexyl]methyl}amino)benzenesulfonyl]benzamide] | 0.0064 | 
CC[C@@H](c1ccc(F)c(F)c1)N1CCN(C2CC3(CCN(c4ccc(C(=O)NS(=O)(=O)c5cc6c(c([N+](=O)[O-])c5)N[C@H](C5CCOCC5)CO6)c(N5c6cc7cc[nH]c7nc6O[C@H]6COCC[C@@H]65)c4)CC3)C2)[C@H](c2ccccc2OC(C)C)C1 [Example 247, 4-(2-((R)-4-((S)-1-(3,4-difluorophenyl)propyl)-2-(2-isopropoxyphenyl)piperazin-1-yl)-7-azaspiro[3.5]nonan-7-yl)-N-(((R)-5-nitro-3-(tetrahydro-2H-pyran-4-yl)-3,4-dihydro-2H-benzo[b][1,4]oxazin-7-yl)sulfonyl)-2-((5aS,9aR)-6,7,9,9a-tetrahydro-1H-pyrano[3,4-b]pyrrolo[3′,2′:5,6]pyrido[3,2-e][1,4]oxazin-5(5aH)-yl)benzamide] |  | 0.0457
COc1c(N2CCOCC2)ncc2c1COC[C@H]2N1CCN(C2CC3(CCN(c4ccc(C(=O)NS(=O)(=O)c5cc6c(c([N+](=O)[O-])c5)N[C@H](C5CCOCC5)CO6)c(N5c6cc7cc[nH]c7nc6O[C@H]6COCC[C@@H]65)c4)CC3)C2)[C@H](c2ccccc2OC(C)C)C1 [Example 250, 2-[(3R,8S)-2,5-dioxa-9,15,17-triazatetracyclo[8.7.0.0^{3,8}.0^{12,16}]heptadeca-1(10),11,13,16-tetraen-9-yl]-4-{2-[(2R)-2-(2-isopropoxyphenyl)-4-[(4S)-8-methoxy-7-(morpholin-4-yl)-1H,3H,4H-pyrano[4,3-c]pyridin-4-yl]piperazin-1-yl]-7-azaspiro[3.5]nonan-7-yl}-N-[(3R)-5-nitro-3-(oxan-4-yl)-3,4-dihydro-2H-1,4-benzoxazin-7-ylsulfonyl]benzamide] | 0.0101 | 
Cc1ccccc1[C@@H]1CN(Cc2cnc3c(c2)OCCO3)CCN1C1CC2(CCN(c3ccc(C(=O)NS(=O)(=O)c4ccc(NCC5CCC(C)(O)CC5)c([N+](=O)[O-])c4)c(N4c5cc6cc[nH]c6nc5O[C@H]5COCC[C@@H]54)c3)CC2)C1 (stereo partly drawn) [Example 125, 2-[(3R,8S)-2,5-dioxa-9,15,17-triazatetracyclo[8.7.0.0^{3,8}.0^{12,16}]heptadeca-1(10),11,13,16-tetraen-9-yl]-4-{2-[(2R)-4-{2H,3H-[1,4]dioxino[2,3-b]pyridin-7-ylmethyl}-2-(2-methylphenyl)piperazin-1-yl]-7-azaspiro[3.5]nonan-7-yl}-N-[3-nitro-4-({[(1r,4r)-4-hydroxy-4-methylcyclohexyl]methyl}amino)benzenesulfonyl]benzamide] | 0.0139 | 
